Patent US11918592B2, “Inhibitors of cyclin dependent kinase 7 (CDK7)” (Syros Pharmaceuticals, Inc., priority 2018, dated 2024)

Key:
HCC70 cells = assay: Inhibition of cell proliferation, CyQUANT Direct, HCC70; type: cell-based, human; details: Homo sapiens; HCC70 triple negative breast cancer cells, 72-hour; read-out: HCC 70 proliferation calculated IC50
Procedure: (§1) HCC70 and MB453 cells are cell lines derived from human triple negative breast cancer. COV318 and COV504 cells are cell lines derived from human ovarian cancer. Representative compounds of the invention were tested at different concentrations (from 4 μM to 126.4 pM; 0.5 log serial dilutions) for their ability to inhibit the proliferation of each of these cell lines. Known CDK inhibitors dinaciclib or N-((1S,3R)-3-((5-chloro-4-(1H-indol-3-yl) pyrimidin-2-yl)amino)cyclohexyl)-5-((E)-4-(dimethylamino)but-2-enamido)picolinamide and triptolide were used as positive controls. Cells were seeded at approximately 2,000 cells/well and grown in ATCC-formulated RPMI-1640 Medium (ATCC 30-2001)+10% FBS. The cells were cultured at 37° C. in a humidified chamber in the presence of 5% CO2. Proliferation assays were conducted over a 72-hour time period. CyQUANT® Direct Cell Proliferation Assay (Life Technologies, Chicago, IL USA) was used to assess the anti-proliferative effects of the compounds following manufacturer's directions and utilizing the reagents supplied with the CyQUANT® Direct Cell kit.

COV318 cells = assay: Inhibition of cell proliferation, CyQUANT Direct, COV318; type: cell-based; details: Homo sapiens; COV318 ovarian cancer cells, 72-hour; read-out: COV 318 proliferation calculated IC50
Procedure: as §1

COV504 cells = assay: Inhibition of cell proliferation, CyQUANT Direct, COV504; type: cell-based; details: Homo sapiens; COV504 ovarian cancer cells, 72-hour; read-out: COV 504 proliferation calculated IC50
Procedure: as §1

MB453 cells = assay: Inhibition of cell proliferation, CyQUANT Direct, MB453; type: cell-based, human; details: Homo sapiens; MB453 triple negative breast cancer cells, 72-hour; read-out: MB 453 proliferation calculated IC50
Procedure: as §1

CDK2/Cyclin E1 complex = CDK2/Cyclin E1 complex (Homo sapiens, UniProt P24941); assay: CDK2 kinase inhibition assay (Caliper/LabChip EZ Reader)
Procedure: (§2) Compounds of the invention were assayed for inhibition of CDK7, CDK9, CDK12, and CDK2 activity at Biortus Biosciences (Jiangyin, Jiangsu Province, P.R. of China) using kinase assays for each CDK developed with a Caliper/LabChip EZ Reader (Perkin Elmer, Waltham, MA).
(§3) Furthermore, the CDK9 inhibition assay used CDK9/Cyclin T1 complex (8 nM) and “5-FAM-CDK9tide” peptide substrate (2 μM, synthesized fluorophore-labeled peptide with the following sequence: 5-FAM-GSRTPMY-NH2 (SEQ ID NO:2) where 5-FAM is defined above and NH2 signifies a C-terminal amide) with 10 mM MgCl2 in the buffer composition listed above. The CDK12 inhibition assay used CDK12 (aa686-1082)/Cyclin K complex (50 nM) and “5-FAM-CDK9tide” (2 μM) as defined above, with 2 mM MgCl2 in the buffer composition above. Additionally, the CDK2 inhibition assay used CDK2/Cyclin E1 complex (0.5 nM) and “5-FAM-CDK7tide” (2 μM) as defined above, with 2 mM MgCl2 in the buffer composition listed above.
(§4) The incubation period at 27° C. for each CDK inhibition assay was chosen such that the fraction of phosphorylated peptide product produced in each assay, relative to the total peptide concentration, was approximately 20% (±5%) for the uninhibited kinase (35 min. for CDK7, 35 min. for CDK2, 3 hr. for CDK12, 15 min. for CDK9).

[1] = biological target: CDK7/Cyclin H/MAT1 complex (Homo sapiens, UniProt P50613); assay: CDK7 kinase inhibition assay (Caliper/LabChip EZ Reader)
Procedure: as §2, §3, §4

CDK9/Cyclin T1 complex = CDK9/Cyclin T1 complex (Homo sapiens, UniProt P50750); assay: CDK9 kinase inhibition assay (Caliper/LabChip EZ Reader)
[2] = biological target: CDK12 (aa686-1082)/Cyclin K complex (Homo sapiens, UniProt Q9NYV4); assay: CDK12 kinase inhibition assay (Caliper/LabChip EZ Reader)
CDK12 (aa686-1082)/Cyclin K complex, sequence (Q9NYV4 686-1082): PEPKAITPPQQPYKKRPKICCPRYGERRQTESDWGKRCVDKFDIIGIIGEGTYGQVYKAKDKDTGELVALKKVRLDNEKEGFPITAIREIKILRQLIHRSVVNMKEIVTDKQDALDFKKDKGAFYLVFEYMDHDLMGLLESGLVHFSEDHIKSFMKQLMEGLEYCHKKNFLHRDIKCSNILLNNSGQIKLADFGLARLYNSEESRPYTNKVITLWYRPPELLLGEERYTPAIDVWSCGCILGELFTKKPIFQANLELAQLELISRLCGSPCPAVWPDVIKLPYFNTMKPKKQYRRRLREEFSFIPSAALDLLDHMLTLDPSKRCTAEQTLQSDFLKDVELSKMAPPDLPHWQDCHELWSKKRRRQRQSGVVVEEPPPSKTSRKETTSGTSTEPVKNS
CDK12 (aa686-1082)/Cyclin K complex, sequence (O75909 whole entry partner, the tested form may be a part): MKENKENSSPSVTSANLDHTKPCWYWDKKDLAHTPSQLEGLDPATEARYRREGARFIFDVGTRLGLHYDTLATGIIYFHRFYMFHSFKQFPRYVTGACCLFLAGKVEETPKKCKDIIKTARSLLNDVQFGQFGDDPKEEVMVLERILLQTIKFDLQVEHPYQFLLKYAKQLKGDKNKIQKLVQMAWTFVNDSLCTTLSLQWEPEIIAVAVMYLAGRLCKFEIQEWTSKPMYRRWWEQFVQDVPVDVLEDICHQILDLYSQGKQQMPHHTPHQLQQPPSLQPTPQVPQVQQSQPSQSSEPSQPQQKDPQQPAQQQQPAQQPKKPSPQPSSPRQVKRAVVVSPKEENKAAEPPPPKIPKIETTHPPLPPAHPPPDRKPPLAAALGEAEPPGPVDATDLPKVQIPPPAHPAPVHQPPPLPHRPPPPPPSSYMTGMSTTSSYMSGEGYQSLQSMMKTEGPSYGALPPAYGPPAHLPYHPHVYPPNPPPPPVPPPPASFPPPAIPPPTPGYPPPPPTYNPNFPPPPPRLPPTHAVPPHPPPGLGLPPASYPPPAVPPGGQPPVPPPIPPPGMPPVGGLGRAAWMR

CDK7/Cyclin H/MAT1 complex, sequence (P50613 whole entry): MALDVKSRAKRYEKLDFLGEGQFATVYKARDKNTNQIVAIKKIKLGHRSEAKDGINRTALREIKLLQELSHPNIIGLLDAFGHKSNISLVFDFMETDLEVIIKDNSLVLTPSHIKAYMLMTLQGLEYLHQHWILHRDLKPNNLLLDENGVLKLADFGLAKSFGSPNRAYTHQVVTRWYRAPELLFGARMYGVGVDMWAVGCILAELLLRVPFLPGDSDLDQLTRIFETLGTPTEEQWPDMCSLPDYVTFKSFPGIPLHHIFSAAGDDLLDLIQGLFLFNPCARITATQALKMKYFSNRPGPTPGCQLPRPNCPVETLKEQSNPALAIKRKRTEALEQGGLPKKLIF
CDK7/Cyclin H/MAT1 complex, sequence (P51946 whole entry partner): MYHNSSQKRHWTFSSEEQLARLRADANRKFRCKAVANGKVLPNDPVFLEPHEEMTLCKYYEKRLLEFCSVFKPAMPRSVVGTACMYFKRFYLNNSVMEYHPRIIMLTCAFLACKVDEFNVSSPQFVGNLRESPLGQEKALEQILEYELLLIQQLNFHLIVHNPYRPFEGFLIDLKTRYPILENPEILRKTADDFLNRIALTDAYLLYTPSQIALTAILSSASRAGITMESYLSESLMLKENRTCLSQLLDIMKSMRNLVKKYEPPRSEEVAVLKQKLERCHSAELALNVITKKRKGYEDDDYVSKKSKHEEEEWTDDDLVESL
CDK7/Cyclin H/MAT1 complex, sequence (P51948 whole entry partner): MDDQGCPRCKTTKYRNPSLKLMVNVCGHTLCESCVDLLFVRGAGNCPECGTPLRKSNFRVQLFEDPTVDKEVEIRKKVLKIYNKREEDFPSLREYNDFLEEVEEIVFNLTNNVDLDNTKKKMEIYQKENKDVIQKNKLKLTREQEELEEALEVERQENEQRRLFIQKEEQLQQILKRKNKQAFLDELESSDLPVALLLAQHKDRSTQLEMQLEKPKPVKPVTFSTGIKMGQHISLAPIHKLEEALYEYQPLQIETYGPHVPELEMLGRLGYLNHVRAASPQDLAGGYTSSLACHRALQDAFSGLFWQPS
CDK9/Cyclin T1 complex, sequence (P50750 whole entry, the tested form may be a part): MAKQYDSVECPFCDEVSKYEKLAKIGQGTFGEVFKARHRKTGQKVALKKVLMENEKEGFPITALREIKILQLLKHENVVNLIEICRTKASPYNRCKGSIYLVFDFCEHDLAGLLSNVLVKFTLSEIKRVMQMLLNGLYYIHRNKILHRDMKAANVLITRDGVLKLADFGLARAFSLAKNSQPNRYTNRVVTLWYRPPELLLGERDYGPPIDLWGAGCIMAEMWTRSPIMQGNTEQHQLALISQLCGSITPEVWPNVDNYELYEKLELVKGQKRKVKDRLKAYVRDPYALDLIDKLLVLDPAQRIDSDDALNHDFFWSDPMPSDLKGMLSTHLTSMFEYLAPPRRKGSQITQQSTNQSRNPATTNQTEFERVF
CDK9/Cyclin T1 complex, sequence (O60563 whole entry partner, the tested form may be a part): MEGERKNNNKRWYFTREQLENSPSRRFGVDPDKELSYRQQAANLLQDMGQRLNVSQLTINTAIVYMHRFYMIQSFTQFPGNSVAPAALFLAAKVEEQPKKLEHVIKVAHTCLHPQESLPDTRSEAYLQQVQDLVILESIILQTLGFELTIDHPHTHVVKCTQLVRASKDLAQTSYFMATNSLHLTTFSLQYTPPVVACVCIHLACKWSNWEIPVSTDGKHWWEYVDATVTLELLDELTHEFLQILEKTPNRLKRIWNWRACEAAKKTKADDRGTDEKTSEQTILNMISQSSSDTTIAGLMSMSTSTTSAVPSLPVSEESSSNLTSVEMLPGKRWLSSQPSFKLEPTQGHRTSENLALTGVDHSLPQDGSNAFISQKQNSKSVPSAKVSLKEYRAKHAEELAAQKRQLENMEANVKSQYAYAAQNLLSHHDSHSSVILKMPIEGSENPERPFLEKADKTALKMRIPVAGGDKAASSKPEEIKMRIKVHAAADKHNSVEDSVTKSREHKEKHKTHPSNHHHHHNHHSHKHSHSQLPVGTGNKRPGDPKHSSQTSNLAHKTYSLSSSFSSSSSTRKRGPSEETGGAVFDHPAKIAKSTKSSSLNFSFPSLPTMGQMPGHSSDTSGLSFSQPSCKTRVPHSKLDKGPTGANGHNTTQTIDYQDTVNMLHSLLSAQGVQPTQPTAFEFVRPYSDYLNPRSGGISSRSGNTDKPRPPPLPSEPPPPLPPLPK

N#Cc1ccc2c(-c3nc(N[C@H]4CN[C@H](CO)C4)ncc3C(F)(F)F)c[nH]c2c1 [Compound 112]
IC50 (HCC70 cells): > 2 µM | IC50 (COV318 cells): > 2 µM | IC50 (COV504 cells): > 2 µM | IC50 (MB453 cells): 0.5 to 2 µM | IC50 (CDK2/Cyclin E1 complex): > 0.5 µM | IC50 [1]: 0.1 to 0.5 µM | IC50 (CDK9/Cyclin T1 complex): > 0.5 µM | IC50 [2]: > 0.5 µM

N#Cc1ccc2c(-c3nc(N[C@H]4C[C@H]5CC[C@@H]4N5)ncc3C(F)(F)F)c[nH]c2c1 [Compound 114, 3-[2-[[(1S,2S,4R)-7-azabicyclo[2.2.1]heptan-3-yl]-amino]-5-(trifluoromethyl)pyrimidin-4-yl]-1H-indole-6-carbonitrile]
IC50 (HCC70 cells): 0.1 to 0.5 µM | IC50 (COV318 cells): 0.1 to 0.5 µM | IC50 (COV504 cells): < 0.1 µM | IC50 (MB453 cells): < 0.1 µM | IC50 (CDK2/Cyclin E1 complex): > 0.5 µM | IC50 [1]: < 0.03 µM | IC50 (CDK9/Cyclin T1 complex): > 0.5 µM | IC50 [2]: > 0.5 µM

N#Cc1ccc2c(-c3nc(N[C@@H]4C[C@@H]5CC[C@H]4N5)ncc3C(F)(F)F)c[nH]c2c1 [Compound 115, 3-[2-[[(1R,2R,4S)-7-azabicyclo[2.2.1]heptan-3-yl]amino]-5-(trifluoromethyl)pyrimidin-4-yl]-1H-indole-6-carbonitrile]
IC50 (HCC70 cells): 0.5 to 2 µM | IC50 (COV318 cells): 0.5 to 2 µM | IC50 (COV504 cells): 0.1 to 0.5 µM | IC50 (MB453 cells): 0.1 to 0.5 µM | IC50 (CDK2/Cyclin E1 complex): > 0.5 µM | IC50 [1]: 0.03 to 0.1 µM | IC50 (CDK9/Cyclin T1 complex): > 0.5 µM | IC50 [2]: > 0.5 µM

Cc1noc(C)c1-c1ccc2c(-c3nc(N[C@H]4CC[C@@H]4N)ncc3C(F)(F)F)c[nH]c2c1 [Compound 116, (1S,2S)—N2-[4-[6-(3,5-dimethylisoxazol-4-yl)-1H-indol-3-yl]-5-(trifluoromethyl)pyrimidin-2-yl]cyclobutane-1,2-diamine]
IC50 (HCC70 cells): 0.1 to 0.5 µM | IC50 (COV318 cells): 0.1 to 0.5 µM | IC50 (COV504 cells): 0.1 to 0.5 µM | IC50 (MB453 cells): < 0.1 µM | IC50 (CDK2/Cyclin E1 complex): > 0.5 µM | IC50 [1]: < 0.03 µM | IC50 (CDK9/Cyclin T1 complex): > 0.5 µM | IC50 [2]: > 0.5 µM

N[C@H]1CCC[C@@H]1Nc1ncc(C(F)(F)F)c(-c2c[nH]c3cc(-c4nccs4)ccc23)n1 [Compound 117, (1S,2S)—N1-[4-(6-thiazol-2-yl-1H-indol-3-yl)-5-(trifluoromethyl)pyrimidin-2-yl]-cyclopentane-1,2-diamine]
IC50 (HCC70 cells): 0.1 to 0.5 µM | IC50 (COV318 cells): > 2 µM | IC50 (COV504 cells): 0.1 to 0.5 µM | IC50 (MB453 cells): 0.1 to 0.5 µM | IC50 (CDK2/Cyclin E1 complex): > 0.5 µM | IC50 [1]: < 0.03 µM | IC50 (CDK9/Cyclin T1 complex): > 0.5 µM | IC50 [2]: > 0.5 µM

Cc1noc(C)c1-c1ccc2c(-c3nc(N[C@H]4CCC[C@@H]4N)ncc3C(F)(F)F)c[nH]c2c1 [Compound 118]
IC50 (HCC70 cells): 0.1 to 0.5 µM | IC50 (COV318 cells): < 0.1 µM | IC50 (COV504 cells): < 0.1 µM | IC50 (MB453 cells): < 0.1 µM | IC50 (CDK2/Cyclin E1 complex): > 0.5 µM | IC50 [1]: < 0.03 µM | IC50 (CDK9/Cyclin T1 complex): > 0.5 µM | IC50 [2]: > 0.5 µM

N#Cc1ccc2c(-c3nc(N[C@H]4Cc5ccccc5[C@@H]4N)ncc3C(F)(F)F)c[nH]c2c1 [Compound 119, 3-[2-[[(1S,2S)-1-aminoindan-2-yl]-amino]-5-(trifluoromethyl)pyrimidin-4-yl]-1H-indole-6-carbonitrile]
IC50 (HCC70 cells): 0.1 to 0.5 µM | IC50 (COV318 cells): > 2 µM | IC50 (COV504 cells): 0.1 to 0.5 µM | IC50 (MB453 cells): 0.1 to 0.5 µM | IC50 (CDK2/Cyclin E1 complex): > 0.5 µM | IC50 [1]: < 0.03 µM | IC50 (CDK9/Cyclin T1 complex): > 0.5 µM | IC50 [2]: > 0.5 µM

CC(=O)N[C@H]1CCC[C@@H]1Nc1ncc(C(F)(F)F)c(-c2c[nH]c3cc(C#N)ccc23)n1 [Compound 120, N-[(1S,2S)-2-[[4-(6-cyano-1H-indol-3-yl)-5-(trifluoromethyl)pyrimidin-2-yl]-amino]cyclopentyl]-acetamide]
IC50 (HCC70 cells): > 2 µM | IC50 (COV318 cells): > 2 µM | IC50 (COV504 cells): > 2 µM | IC50 (MB453 cells): > 2 µM | IC50 (CDK2/Cyclin E1 complex): > 0.5 µM | IC50 [1]: > 0.5 µM | IC50 (CDK9/Cyclin T1 complex): > 0.5 µM | IC50 [2]: > 0.5 µM

N#Cc1ccc2c(-c3nc(N[C@H]4CCC[C@@H]4N4CCOCC4)ncc3C(F)(F)F)c[nH]c2c1 [Compound 121]
IC50 (HCC70 cells): > 2 µM | IC50 (COV318 cells): > 2 µM | IC50 (COV504 cells): > 2 µM | IC50 (MB453 cells): > 2 µM | IC50 (CDK2/Cyclin E1 complex): > 0.5 µM | IC50 [1]: 0.03 to 0.1 µM | IC50 (CDK9/Cyclin T1 complex): > 0.5 µM | IC50 [2]: > 0.5 µM
